According to BindingDB's records for doi:10.1016/j.bmcl.2013.03.113 (Vanderbilt University Medical Center, 2013):

Target: T1, Bone morphogenetic protein 4 (Mus musculus, UniProt P21275)
T1 sequence (P21275 whole entry): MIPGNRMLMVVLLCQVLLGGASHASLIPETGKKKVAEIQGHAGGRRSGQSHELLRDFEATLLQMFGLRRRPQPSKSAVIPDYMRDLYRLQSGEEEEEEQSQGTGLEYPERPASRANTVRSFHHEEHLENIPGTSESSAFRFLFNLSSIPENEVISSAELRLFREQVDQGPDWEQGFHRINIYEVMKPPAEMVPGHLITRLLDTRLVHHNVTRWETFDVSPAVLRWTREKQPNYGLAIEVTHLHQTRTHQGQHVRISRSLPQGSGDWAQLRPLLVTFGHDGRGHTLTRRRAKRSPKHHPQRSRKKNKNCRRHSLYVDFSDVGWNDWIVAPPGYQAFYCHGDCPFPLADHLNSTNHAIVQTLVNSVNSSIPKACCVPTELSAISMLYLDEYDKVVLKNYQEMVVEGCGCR
Test: Inhibition of BMP4 in mouse C2C12BRA cells after 14 hrs by luciferase reporter gene assay

Structure (SMILES)	IC50
Clc1cc(-c2cnn3cc(-c4ccc(N5CCOCC5)cc4)cnc23)ccn1	529 nM
c1ccc2c(-c3cnn4cc(-c5ccc(N6CCOCC6)cc5)cnc34)csc2c1	418 nM
